# Biological target: T1, myeloperoxidase (MPO) (Homo sapiens, UniProt P05164)
# T1 sequence (P05164 49-745): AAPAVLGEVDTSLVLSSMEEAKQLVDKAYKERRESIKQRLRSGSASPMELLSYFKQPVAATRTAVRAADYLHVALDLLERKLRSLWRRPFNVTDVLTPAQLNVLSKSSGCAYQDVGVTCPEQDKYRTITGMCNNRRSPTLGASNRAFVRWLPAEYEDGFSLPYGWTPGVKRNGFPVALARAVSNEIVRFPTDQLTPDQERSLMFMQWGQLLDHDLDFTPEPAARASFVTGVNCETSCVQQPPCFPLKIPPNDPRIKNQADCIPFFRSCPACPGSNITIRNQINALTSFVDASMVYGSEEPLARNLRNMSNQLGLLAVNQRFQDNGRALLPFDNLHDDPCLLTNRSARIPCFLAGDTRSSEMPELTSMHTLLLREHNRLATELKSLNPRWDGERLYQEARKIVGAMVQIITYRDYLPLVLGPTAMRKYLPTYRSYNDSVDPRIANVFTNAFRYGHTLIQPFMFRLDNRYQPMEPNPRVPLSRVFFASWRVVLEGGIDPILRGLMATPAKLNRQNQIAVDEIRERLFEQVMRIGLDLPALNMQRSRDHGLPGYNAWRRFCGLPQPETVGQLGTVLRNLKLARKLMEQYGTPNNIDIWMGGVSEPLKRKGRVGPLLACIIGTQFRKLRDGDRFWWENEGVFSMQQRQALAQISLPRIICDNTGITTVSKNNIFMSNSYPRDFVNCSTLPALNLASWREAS
# Test: MPO peroxidation assay (Amplex Red assay)
# Type: biochemical
# Details: MPO peroxidation, potency range class; read-out: Amplex Red IC50
# In short: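 MPO (200 pM) with 40 nM H2O2 was preincubated 10 min at room temperature with inhibitor in 100 mM KPi pH 7.4. A mix of Amplex Red (200 μM) and H2O2 (10 mM) was then added and resorufin fluorescence read kinetically for 15 min. Slopes over 180–540 s gave % inhibition and IC50 via a four-parameter Hill fit.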
row,SMILES,IC50
1,"Nc1cc(OCc2cccc(Br)c2)c2nn[nH]c2n1 [Example 148, 7-(3-Bromobenzyloxy)-3H-[1,2,3]triazolo[4,5-b]pyridin-5-amine]",1 to 100 nM
2,"Nc1cc(OCc2cc(C(=O)N3CCCC3)ccc2F)c2nn[nH]c2n1 [Example 152, (3-((5-amino-3H-[1,2,3]triazolo[4,5-b]pyridin-7-yloxy)methyl)-4-fluorophenyl)(pyrrolidin-1-yl)methanone]",101 to 999 nM
3,"Nc1cc(OCc2cc(C(=O)N3CCC(O)CC3)ccc2F)c2nn[nH]c2n1 [Example 153, (3-((5-amino-3H-[1,2,3]triazolo[4,5-b]pyridin-7-yloxy)methyl)-4-fluorophenyl)(4-hydroxypiperidin-1-yl)methanone]",101 to 999 nM
4,"CN(CCO)C(=O)c1ccc(F)c(COc2cc(N)nc3[nH]nnc23)c1 [Example 154, 3-((5-amino-3H-[1,2,3]triazolo[4,5-b]pyridin-7-yloxy)methyl)-4-fluoro-N-(2-hydroxyethyl)-N-methylbenzamide]",101 to 999 nM
5,"Nc1cc(OCc2cc(C(=O)Nc3nnc(C(F)(F)F)s3)ccc2F)c2nn[nH]c2n1 [Example 155, 3-((5-amino-3H-[1,2,3]triazolo[4,5-b]pyridin-7-yloxy)methyl)-4-fluoro-N-(5-(trifluoromethyl)-1,3,4-thiadiazol-2-yl)benzamide]",101 to 999 nM
6,"Nc1cc(OCc2cc(C(=O)NCCCN3CCCC3=O)ccc2F)c2nn[nH]c2n1 [Example 156, 3-((5-amino-3H-[1,2,3]triazolo[4,5-b]pyridin-7-yloxy)methyl)-4-fluoro-N-(3-(2-oxopyrrolidin-1-yl)propyl) benzamide]",101 to 999 nM
7,"CC(NC(=O)c1ccc(F)c(COc2cc(N)nc3[nH]nnc23)c1)c1ccccc1 (stereo not shown) [Example 157, 3-((5-amino-3H-[1,2,3]triazolo[4,5-b]pyridin-7-yloxy)methyl)-4-fluoro-N-(1-phenylethyl)benzamide]",1 to 100 nM
8,"COCCNC(=O)c1ccc(F)c(COc2cc(N)nc3[nH]nnc23)c1 [Example 158, 3-((5-amino-3H-[1,2,3]triazolo[4,5-b]pyridin-7-yloxy)methyl)-4-fluoro-N-(2-methoxyethyl)benzamide]",1 to 100 nM
9,"CN(C(=O)c1ccc(F)c(COc2cc(N)nc3[nH]nnc23)c1)c1ccccc1 [Example 159, 3-((5-amino-3H-[1,2,3]triazolo[4,5-b]pyridin-7-yloxy)methyl)-4-fluoro-N-methyl-N-phenylbenzamide]",1 to 100 nM
10,"Nc1cc(OCc2cc(C(=O)NC3(CO)CCCC3)ccc2F)c2nn[nH]c2n1 [Example 160, 3-((5-amino-3H-[1,2,3]triazolo[4,5-b]pyridin-7-yloxy)methyl)-4-fluoro-N-(1-(hydroxymethyl)cyclopentyl) benzamide]",101 to 999 nM
11,"NC(=O)CNC(=O)c1ccc(F)c(COc2cc(N)nc3[nH]nnc23)c1 [Example 161, N-(2-amino-2-oxoethyl)-3-((5-amino-3H-[1,2,3]triazolo[4,5-b]pyridin-7-yloxy)methyl)-4-fluorobenzamide]",1 to 100 nM
12,"Nc1cc(OCc2cc(C(=O)NCC3CC3)ccc2F)c2nn[nH]c2n1 [Example 162, 3-((5-amino-3H-[1,2,3]triazolo[4,5-b]pyridin-7-yloxy)methyl)-N-(cyclopropylmethyl)-4-fluorobenzamide]",1 to 100 nM
13,Nc1cc(OCc2cc(C(=O)NC3CCC(O)CC3)ccc2F)c2nn[nH]c2n1 (stereo not shown) [Example 163],101 to 999 nM
14,CN1CCC(N(C)C(=O)c2ccc(F)c(COc3cc(N)nc4[nH]nnc34)c2)C1 (stereo not shown) [Example 164],101 to 999 nM
15,"Nc1cc(OCc2cc(C(=O)N3CC[C@@H](O)C3)ccc2F)c2nn[nH]c2n1 [Example 166, (R)-(3-((5-amino-3H-[1,2,3]triazolo [4,5-b]pyridin-7-yloxy)methyl)-4-fluorophenyl)(3-hydroxypyrrolidin-1-yl)methanone]",101 to 999 nM
16,"Nc1cc(OCc2cc(C(=O)N3CCNC(=O)C3)ccc2F)c2nn[nH]c2n1 [Example 169, 4-(3-((5-amino-3H-[1,2,3]triazolo [4,5-b]pyridin-7-yloxy)methyl)-4-fluorobenzoyl)piperazin-2-one]",101 to 999 nM
